Measurements: paper PMC9299640, “Incorporation of β‐Alanine in Cu(II) ATCUN Peptide Complexes Increases ROS Levels, DNA Cleavage and Antiproliferative Activity” (Chemistry (Weinheim an Der Bergstrasse, Germany), 2021)
Where a SMILES comes first, the peptide text is derived from it. Where no end group is shown, it is not given here. [ ]: non-standard residue; d: D form. βAla = NCCC(=O)O

Legend:
[1] = Potentiometric titration of peptides: protonation constants; type: physicochemical; conditions: protonation constant, potentiometry, 1 mM peptide, error on last digit in parentheses; for log β H2L / log β H3L / log β HL: 25 °C, I=0.1 (KNO3)
Description: (§1) Key factors for the investigation of the biological activity of metal complexes are the complex stability and the detection of the active species at a physiological pH value of 7.4.[27] Thus, potentiometric titration experiments of peptides a–g (b) alone and in the presence of CuCl2 (logarithmic protonation (log β) and protonation‐corrected Cu(II) binding constants (log *K)) and pH‐metric UV/VIS and CD spectroscopic measurements of 1–7 (2 [26]) were carried out (S‐5).
(§2) S-5 Protonation and complex stability constants
(§3) All bioanalytical experiments (DNA cleavage, DNA binding and ROS detection studies) and cell studies (cytotoxicity and cellular uptake) were carried out at pH 7.4. To characterize the speciation of the ATCUN metallopeptides at this pH, potentiometric titrations in combination with UV/VIS and CD spectroscopy were carried out for 1 and 3-7.
(§4) S-5.1 Potentiometry, UV/VIS and circular dichroism (CD) spectroscopy […]
(§5) Potentiometric titrations were performed on a 907 Titrando Automatic Titrator (Metrohm) using a Biotrode combined glass electrode (Metrohm), calibrated daily by nitric acid titrations with the use of standardized 100 mM NaOH (carbon dioxide-free) as a […]
Stock solution preparation: […]
Samples (1.5 mL volume, 1 mM peptide) were prepared in 4 mM HNO3/96 mM KNO3 solution. To calculate ligand (peptide) concentrations and their protonation constants, at least three consecutive potentiometric titrations were performed. […]
The pH range for all potentiometric
All ligand and complex titrations were performed under argon at 25 °C. The data was analyzed using the SUPERQUAD and HYPERQUAD programs. […]
(§6) Table S5. Logarithmic protonation and Cu(II) binding constants (log β and pK) of peptides a-g (b not measured), determined by potentiometry at 25 °C and I=0.1 (KNO3), and competitivity index (CI) values calculated at pH 7.4 for 1 mM Cu(II) and peptides based on respective stability constants.
(§7) Statistical errors on the last digits of log β values, provided by HYPERQUAD, are given in parentheses. […]
(§8) log β pK log β pK log β pK log β pK log β pK log β pK
CuH3L - - - - - - - - - - […]
(§9) For log *K4N, the higher the number (less negative value) the higher stability of Cu(II) complexes (only relative meaning – no interpretation of concentrations of species possible).
For CI7.4, the higher the number the higher the stability. CI is the affinity constant for the imaginary CuZ complex which is equivalent in strength to the probed complex/set of complexes. The advantage of CI is that its unit is M-1, and can be compared with log K values for real complexes.

[2] = Potentiometric titration of peptides with CuCl2: Cu(II) binding constants and competitivity index at pH 7.4; type: physicochemical; conditions: 25 °C, I=0.1 (KNO3); for CI7.4 (competitivity index, log K CuZ): calculated at pH 7.4 for 1 mM Cu(II), peptide L and virtual competitive ligand Z from potentiometric stability constants; for log *K4N (protonation-corrected stability constant of Cu(II) 4N complex): log β{CuHn-4L} – log β{HnL}; for log β CuH-1L / log β CuH-2L / log β CuHL / log β CuL / log β CuH-3L: 1 mM peptide, Cu:peptide 1:1, 1:2, 1:3
Description: as §1, §2, §3, §4, §5
Stock solution preparation:
Stock solutions of peptides a and c–g for UV/VIS and CD experiments were prepared by dissolving given amounts of peptides in carbon dioxide-free Milli-Q® water.
Samples (1.5 mL volume, 1 mM peptide) were prepared in 4 mM HNO3/96 mM KNO3 solution. To calculate ligand (peptide) concentrations and their protonation constants, at least three consecutive potentiometric titrations were performed.
Three samples (1.5 mL) of 1 mM peptide and CuCl2 with Cu : peptide ratios of 1:1, 1:2 and 1:3 were prepared in 4 mM HNO3/96 mM KNO3. Each sample was titrated separately using a standardized 100 mM NaOH solution. The pH range for all potentiometric […]
All ligand and complex titrations were performed under argon at 25 °C. The data was analyzed using the SUPERQUAD and HYPERQUAD programs.
For the determination of Cu(II) stability constants, peptides a and c–g UV/VIS spectra were recorded in a range of 250–900 nm with a scan resolution of 1 nm, and a scan speed of 0.5 s/nm on a Lambda 950 UV/VIS/NIR spectrophotometer (PerkinElmer). The samples of 1 mM peptide/0.8 mM CuCl2 were prepared in 1 cm path length quartz cuvettes (Hellma) and titrated with small amounts of concentrated NaOH solution. Usually the pH-metric titration spanned from pH 2.9 to pH 12.5. […]
as §6, §7, §8
CuH3L - - - - - - - - - -
CI: Competitivity index calculated for pH 7.4 and peptide L, Cu(II) and Z concentrations of 0.001 M. CI is log KCuZ fulfilling the condition Σijk([CuiHjLk]=[CuZ].3 log *K4N is a protonation-corrected stability constant allowing to compare peptides with different protonation states forming the same type of complexes In general log*KxN, where x stand for number of coordinated nitrogens can be described by log *KxN = log β{CuHn-xL} – log β{HnL} HnL stands for the protonation of coordinating histidine (in position 3 from N-terminus in case of ATCUN motifs) […]
Peptides can be compared easily between each other using both protonation-corrected stability constant (log *K4N) and Competitivity Index at pH 7.4 (CI7.4):
as §9
For CI7.4, the higher the number the higher the stability. […]

[3] = potentiometry, error on last digit in parentheses

| log β H2L [1] | log β H3L [1] | log β HL [1] | pK CuH-1L ([2]; Cu(II) species, potentiometry) | pK CuH-2L ([2]; Cu(II) species, potentiometry) | CI7.4 (competitivity index, log K CuZ) [2] | log *K4N (protonation-corrected stability constant of Cu(II) 4N complex) ([2]; potentiometry) | log β CuH-1L [2, 3] | log β CuH-2L [2, 3] | log β CuHL [2, 3] | log β H4L ([1]; 4 mM HNO3/96 mM KNO3, 25 °C, I=0.1, argon, at least three titrations) | pK CuL ([2]; Cu(II) species, potentiometry) | log β CuL [2, 3] | log β CuH2L ([2]; potentiometry, 4 mM HNO3/96 mM KNO3, 1 mM peptide, Cu:peptide 1:1, 1:2, 1:3, pH 2.7-11.6, argon, error on last digit in parentheses) | pK CuH-3L ([2]; Cu(II) species, potentiometry) | log β CuH-3L [2, 3] | Compound |
| --- | --- | --- | --- | --- | --- | --- | --- | --- | --- | --- | --- | --- | --- | --- | --- | --- |
| 17.755(5) | 23.846(5) | 10.255(3) | 4.82 | 10.10 | 11.29 | -16.738 | 7.108(5) | -2.987(9) | 16.75(1) | – | – | – | – | – | – | NCCCC[C@H](NC(=O)[C@H](Cc1c[nH]cn1)NC(=O)CCNC(=O)[C@@H](N)Cc1c[nH]c2ccccc12)C(=O)N[C@@H](CO)C(=O)N[C@@H](CO)C(N)=O [g] (H-W[βAla]HKSS-NH2) |
| 20.563(2) | 27.860(3) | 10.656(3) | 10.00 | 10.41 | 10.31 | -17.537 | 6.337(8) | -4.068(6) | – | 33.875(4) | 5.13 | 16.338(4) | 26.604(9) | – | – | NCCCC[C@H](NC(=O)[C@H](Cc1c[nH]cn1)NC(=O)CCNC(=O)[C@@H](N)CCCCN)C(=O)N[C@@H](CO)C(=O)N[C@@H](CO)C(N)=O [d] (H-K[βAla]HKSS-NH2) |
| 14.160(2) | – | 7.853(1) | – | – | 13.61 | -14.747 | – | -0.587(5) | – | – | – | – | – | 11.79 | -12.38(2) | GGHGSS-NH2 [a] |
| 17.632(4) | 23.715(5) | 10.262(3) | 5.06 | 10.12 | 10.52 | -17.435 | 6.280(3) | -3.840(7) | 16.406(9) | – | – | – | – | 11.17 | -15.007(8) | NCCCC[C@H](N)C(=O)NCCC(=O)N[C@@H](Cc1c[nH]cn1)C(=O)N[C@@H](Cc1c[nH]c2ccccc12)C(=O)N[C@@H](CO)C(=O)N[C@@H](CO)C(N)=O [f] (H-K[βAla]HWSS-NH2) |
| 14.266(3) | – | 8.001(2) | – | 5.65 | 9.915 | -18.426 | – | -4.160(5) | – | – | – | 7.137(5) | – | 10.4 | -14.560(8) | NCC(=O)NCCC(=O)N[C@@H](Cc1c[nH]cn1)C(=O)NCC(=O)N[C@@H](CO)C(=O)N[C@@H](CO)C(N)=O [Peptide c] (H-G[βAla]HGSS-NH2) |
| 13.700(3) | – | 7.584(3) | – | 4.92 | 11.28 | -16.804 | – | -3.104(3) | – | – | – | 6.743(7) | – | 11.58 | -14.683(9) | NC(=O)[C@H](CO)NC(=O)[C@H](CO)NC(=O)[C@H](Cc1c[nH]c2ccccc12)NC(=O)[C@H](Cc1c[nH]cn1)NC(=O)CCNC(=O)[C@@H](N)Cc1c[nH]c2ccccc12 [e] (H-W[βAla]HWSS-NH2) |
